Here are results for 54 compounds from patent publication US20260347365A1, “COMPOUND FOR REGULATING AND CONTROLLING 15-PGDH ACTIVITY AND PREPARATION METHOD THEREFOR” (SCINNOHUB PHARMACEUTICAL CO.,LTD, priority 2023, published 2026).

The first assay concerns the target T1, 15-PGDH (Homo sapiens, UniProt P15428).
T1 construct: purchased Sino Biological Inc. 11205-H08E
T1 sequence (P15428 1-266): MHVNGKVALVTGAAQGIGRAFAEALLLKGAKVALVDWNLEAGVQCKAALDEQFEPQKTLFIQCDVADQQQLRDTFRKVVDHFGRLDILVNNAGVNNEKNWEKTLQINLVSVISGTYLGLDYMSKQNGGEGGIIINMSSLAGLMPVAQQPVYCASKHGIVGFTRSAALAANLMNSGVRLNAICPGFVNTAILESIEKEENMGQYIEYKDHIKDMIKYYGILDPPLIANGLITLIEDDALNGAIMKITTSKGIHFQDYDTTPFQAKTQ
In words: Detection of Activity of 15-PGDH Kinase (inhibition of 15-PGDH enzyme). Type of assay: biochemical.
Conditions: not given
On the procedure: • a. A solution of pH 7.5 containing 50 mM Tris-HCl and 0.01% Tween 20 was prepared with ultrapure water as a reaction buffer; • b. a 10 mM mother liquor of the compound to be tested was prepared with DMSO, and then the reaction buffer was used to dilute the mother liquor of the compound to be tested to obtain solution 1 of the compound to be tested at a concentration of 4000 nM, and then the solution 1 of the compound to be tested was serially diluted into solutions 2-10 of the compound to be tested at 9 concentrations with a gradient difference of three-fold. 5 μL of each concentration of solutions 1-10 of the compound to be tested was respectively taken and added into a 384-well plate as test wells; • c. 5 μL of the reaction buffer was added to the 384-well plate as positive control and blank control wells; • d. the reaction buffer was used to prepare a 15-PGDH protein solution at a concentration of 5 ng/μL, 5 μL of the 15-PGDH protein solution was taken and added to the test wells and positive control wells, and 5 μL of the reaction buffer was added to the blank control wells at the same time, then the plate was centrifuged at 2000 rpm for 30 seconds; • e. the reaction buffer was used to prepare 5 mM β-NAD and 2 mM PGF2α, respectively, which were mixed at 1:1 by volume to obtain a substrate mixture, 10 μL of the substrate mixture was taken and added to the test wells, positive control wells and blank control wells to start the reaction; • f. the fluorescence signal value (Ex/Em=340/450) of each well was detected continuously by using a multifunctional microplate reader.
• a) Continuous fluorescence signal values were analyzed by using the “kinetic calculations-slope calculation method” in the PHERAstar Data analysis software to obtain the slope of each test well; • b) the inhibition rate % was calculated by using the following formula:
inhibition rate %=[1−(slope of test well-signal value of positive control well)/(signal value of blank control well-average signal value of positive control well)]×100%. • c) calculation of IC50 and plotting of inhibition rate-dose curves: IC50 values were calculated by fitting compound concentrations and corresponding inhibition rates with a nonlinear regression (dose response-variable slope) via using GraphPad Prism 6.0.
The formula is shown below: Y=Bottom+(Top−Bottom)/(1+10^((Log IC50−X)*HillSlope)), wherein X is a log value of a concentration of the compound, and Y is inhibition rate %.
For `O=C(c1ccc2c(c1)nc(-c1ccc3ocnc3c1)c1nccn12)N1CCCCC1` [Example 2, (4-(benzo[d]oxazol-5-yl)imidazo[1,2-a]quinoxalin-7-yl)(piperidin-1-yl)methanone], the IC50 (in general, the concentration that gives 50% inhibition) fell in the range of 2 to 5 nM.

`Cc1cnc2c(-c3ccc4c(c3)CN(C)C4=O)nc3cc(C(=O)N4CCCCC4)ccc3n12` [Example 3, 2-methyl-5-(1-methyl-7-(piperidine-1-carbonyl)imidazo[1,2-a]quinoxalin-4-yl) isoindolin-1-one] had an IC50 of 2 to 5 nM. The compound `CN1Cc2cc(C3=Nc4cc(C(=O)N5CCCCC5)ccc4N4CC5(CC5)N=C34)ccc2C1=O` [Example 4, 2-methyl-5-(7′-(piperidine-1-carbonyl)-1′H-spiro[cyclopropane-1,2′-imidazo[1,2-a]quinoxaline]-4′-yl) isoindolin-1-one] showed an IC50 of under 2 nM. The same measure, in the same setting: next, `CN1Cc2cc(-c3nc4cc(C(=O)N5CCCCC5)ccc4n4cnnc34)ccc2C1=O` [Example 5, 2-methyl-5-(7-(piperidine-1-carbonyl)-[1,2,4]triazolo[4,3-a]quinoxalin-4-yl) isoindolin-1-one]: 5 to 10 nM.

Staying with this assay, now noted: class symbols; substrates β-NAD and PGF2α, pH 7.5, fluorescence Ex/Em=340/450; read-out: IC50.
For `CN1Cc2cc(-c3nc4cc(C(=O)N5CCCCC5)ccc4n4ccnc34)ccc2C1=O` [Example 6], the IC50 was under 2 nM. Take `Nc1ncc(-c2nc3cc(C(=O)N4CCCCC4)ccc3n3ccnc23)cn1` [Example 7]: the IC50 is 2 to 5 nM. For `O=C(c1ccc2c(c1)nc(-c1cncnc1)c1nccn12)N1CCCCC1` [Example 8], the 50% inhibitory concentration (IC50) lay within 5 to 10 nM. As to `O=C(c1ccc2c(c1)nc(-c1ccc3ncsc3c1)c1nccn12)N1CCCCC1` [Example 10], the half-maximal inhibitory concentration (IC50) lay in the range of 5 to 10 nM. Regarding `O=C(c1ccc2c(c1)nc(-c1ccccc1)c1nccn12)N1CCC(F)(F)CC1` [Example 16], the concentration for half-maximal inhibition (IC50) is 100 to 1000 nM. On to `O=C(c1ccc2c(c1)nc(-c1ccccc1)c1nccn12)N1CCOCC1` [Example 17], for which the IC50 was in the range of 100 to 1000 nM. As for `Cn1cc(-c2nc3cc(C(=O)N4CCCCC4)ccc3n3ccnc23)ccc1=O` [Example 18], the IC50 lay within 10 to 20 nM. In the case of `O=C(c1ccc2c(c1)nc(-c1ccc3nccnc3c1)c1nccn12)N1CCCCC1` [Example 19], the half-maximal inhibitory concentration (IC50) is 5 to 10 nM. Consider `Cn1ccc2cc(-c3nc4cc(C(=O)N5CCCCC5)ccc4n4ccnc34)ccc2c1=O` [Example 20], for which the IC50 was under 2 nM.

For the compound `Cn1cc2cc(-c3nc4cc(C(=O)N5CCCCC5)ccc4n4ccnc34)ccc2n1` [Example 21], the IC50 is under 2 nM. Regarding `Cn1ccc2cc(-c3nc4cc(C(=O)N5CCCCC5)ccc4n4ccnc34)cnc21` [Example 23], the concentration for half-maximal inhibition (IC50) was 2 to 5 nM.

Consider `Cn1ncc2cc(-c3nc4cc(C(=O)N5CCCCC5)ccc4n4ccnc34)ccc21` [Example 24], for which the IC50 lay within 2 to 5 nM. With `O=C(c1ccc2c(c1)nc(-c1ccc3ncnn3c1)c1nccn12)N1CCCCC1` [Example 27], the IC50 lay within 5 to 10 nM. Regarding `O=C(c1ccc2c(c1)nc(-c1ccc3[nH]c(=O)[nH]c3c1)c1nccn12)N1CCCCC1` [Example 29], the concentration for half-maximal inhibition (IC50) is under 2 nM.

As for `CCOC(=O)c1cn2cc(-c3nc4cc(C(=O)N5CCCCC5)ccc4n4ccnc34)ccc2n1` [Example 30], the IC50 lay in the range of 5 to 10 nM.

In the case of `O=C1OCc2cc(-c3nc4cc(C(=O)N5CCCCC5)ccc4n4ccnc34)ccc21` [Example 31], the 50% inhibitory concentration (IC50) fell in the range of 5 to 10 nM.

For the compound `O=C(O)c1ccc(-c2nc3cc(C(=O)N4CCCCC4)ccc3n3ccnc23)cc1` [Example 33], the IC50 was under 2 nM. Turning to `Cc1cn2c(n1)c(-c1ccc3c(c1)CN(C)C3=O)nc1cc(C(=O)N3CCCCC3)ccc12` [Example 34], the IC50 was under 2 nM. Same read-out and setting: next, `CN1Cc2cc(C3=Nc4cc(C(=O)N5CCCCC5)ccc4N4CCN=C34)ccc2C1=O` [Example 35]: under 2 nM; `CC1CN2C(=N1)C(c1ccc3c(c1)CN(C)C3=O)=Nc1cc(C(=O)N3CCCCC3)ccc12` (stereo not drawn) [Example 36]: under 2 nM; `CC1CN=C2C(c3ccc4c(c3)CN(C)C4=O)=Nc3cc(C(=O)N4CCCCC4)ccc3N21` (stereo not drawn) [Example 37]: under 2 nM. The same measure, in the same setting: next, `CN1Cc2cc(-c3nc4cc(C(=O)N5CCC(F)CC5)ccc4n4ccnc34)ccc2C1=O` [Example 38]: 2 to 5 nM; `CN1Cc2cc(-c3nc4cc(C(=O)N5CCCC5)ccc4n4ccnc34)ccc2C1=O` [Example 40]: 50 to 100 nM. Take `CN1Cc2cc(C3=Nc4cc(C(=O)N5CCCCC5)ccc4N4CC(C)(C)N=C34)ccc2C1=O` [Example 41]: the 50% inhibitory concentration (IC50) was under 2 nM. On to `CCOC(=O)c1ccc(-c2nc3cc(C(=O)N4CCCCC4)ccc3n3ccnc23)cc1` [Example 42], for which the IC50 fell in the range of 5 to 10 nM. With `CC(C)C1CN2C(=N1)C(c1ccc3c(c1)CN(C)C3=O)=Nc1cc(C(=O)N3CCCCC3)ccc12` (stereo not drawn) [Example 43], the IC50 is 5 to 10 nM. Regarding `CC(C)CC1CN2C(=N1)C(c1ccc3c(c1)CN(C)C3=O)=Nc1cc(C(=O)N3CCCCC3)ccc12` (stereo not drawn) [Example 44], the concentration for half-maximal inhibition (IC50) fell in the range of 5 to 10 nM. Consider `CN1Cc2cc(C3=Nc4cc(C(=O)N5CCCCC5)ccc4N4CC(C(C)(C)C)N=C34)ccc2C1=O` (stereo not drawn) [Example 45], for which the concentration for half-maximal inhibition (IC50) is 5 to 10 nM.

With `CN1Cc2cc(-c3nc4cc(C(=O)N5CCCCC5)ccc4c4nccn34)ccc2C1=O` [Example 46, 2-methyl-5-(8-(piperidine-1-carbonyl)imidazo[1,2-c]quinazolin-5-yl) isoindolin-1-one], the half-maximal inhibitory concentration (IC50) is 2 to 5 nM. In the case of `O=C(c1ccc2c(c1)nc(-c1ccc3c(c1)CCN3)n1ccnc21)N1CCCCC1` [Example 47], the IC50 lay in the range of 2 to 5 nM.

As to `N#Cc1ccc(-c2nc3cc(C(=O)N4CCCCC4)ccc3c3nccn23)cn1` [Example 50], the half-maximal inhibitory concentration (IC50) fell in the range of 5 to 10 nM. For the compound `CN(C)c1ncc(-c2nc3cc(C(=O)N4CCCCC4)ccc3c3nccn23)cn1` [Example 52], the concentration for half-maximal inhibition (IC50) is 5 to 10 nM. Turning to `Cn1cc(-c2nc3cc(C(=O)N4CCCCC4)ccc3c3nccn23)cn1` [Example 53], the IC50 was 2 to 5 nM. Take `O=C(c1ccc2c(c1)nc(-c1ccc3ncsc3c1)n1ccnc21)N1CCCCC1` [Example 54]: the 50% inhibitory concentration (IC50) is under 2 nM. `Nc1ncc(-c2nc3cc(C(=O)N4CCCCC4)ccc3c3nccn23)cn1` [Example 56]: the IC50 is under 2 nM.

Consider `O=C(c1ccc2c(c1)nc(-c1cccnc1)n1ccnc21)N1CCCCC1` [Example 57], for which the IC50 is 2 to 5 nM.

As to `O=C(c1ccc2c(c1)nc(-c1ccc3nccn3c1)n1ccnc21)N1CCCCC1` [Example 59], the half-inhibitory concentration (IC50) was in the range of 5 to 10 nM.

On to `O=C(c1ccc2c(c1)nc(-c1ccc3c(c1)OCCO3)n1ccnc21)N1CCCCC1` [Example 60], for which the IC50 fell in the range of 5 to 10 nM. As for `Cn1ccc(-c2nc3cc(C(=O)N4CCCCC4)ccc3c3nccn23)cc1=O` [Example 61], the 50% inhibitory concentration (IC50) lay in the range of 5 to 10 nM. For `Cn1ccc2cc(-c3nc4cc(C(=O)N5CCCCC5)ccc4c4nccn34)cnc21` [Example 62], the IC50 was under 2 nM. In the case of `O=C(c1ccc2c(c1)nc(-c1ccc3nccnc3c1)n1ccnc21)N1CCCCC1` [Example 67], the IC50 is 2 to 5 nM. `Cn1ncc2cc(-c3nc4cc(C(=O)N5CCCCC5)ccc4c4nccn34)ccc21` [Example 69]: the IC50 fell in the range of 2 to 5 nM. As for `CCOC(=O)c1cc2cc(-c3nc4cc(C(=O)N5CCCCC5)ccc4c4nccn34)ccc2[nH]1` [Example 72], the half-inhibitory concentration (IC50) lay within 5 to 10 nM. For the compound `Cn1ccc2cc(-c3nc4cc(C(=O)N5CCCCC5)ccc4c4nccn34)ccc2c1=O` [Example 73], the IC50 is under 2 nM. With `CN1Cc2cc(-c3nc4ccc(C(=O)N5CCCCC5)cc4c4nccn34)ccc2C1=O` [Example 75], the IC50 is 100 to 1000 nM. As for `CN1Cc2cc(-c3nc4cc(C(=O)N5CCCCC5)ccc4c4ncnn34)ccc2C1=O` [Example 76], the concentration for half-maximal inhibition (IC50) is under 2 nM. Regarding `Cc1nc2c3ccc(C(=O)N4CCCCC4)cc3nc(-c3ccc4c(c3)CN(C)C4=O)n2n1` [Example 77], the IC50 was under 2 nM.

As to `CC(C)c1nc2c3ccc(C(=O)N4CCCCC4)cc3nc(-c3ccc4c(c3)CN(C)C4=O)n2n1` [Example 78], the IC50 is 2 to 5 nM. The same measure, in the same setting: then `CN1Cc2cc(-c3nc4cc(C(=O)N5CCCCC5)ccc4c4nc(C(F)(F)F)nn34)ccc2C1=O` [Example 79], with 2 to 5 nM.

`CN1Cc2cc(-c3nc4cc(C(=O)N5CCCCC5)ccc4c4cccn34)ccc2C1=O` [Example 80]: the IC50 is under 2 nM.
